The text below walks through data of patent US20070197509A1, “Compositions and methods for modulating gated ion channels” (PainCeptor Pharma Corporation, priority 2005, published 2007).

Structures are written as SMILES. “Also recorded” adds a separate entry of the source.

Assay [1] addresses T1, hASIC1a (Homo sapiens, UniProt P78348).
T1 sequence (P78348 1-528): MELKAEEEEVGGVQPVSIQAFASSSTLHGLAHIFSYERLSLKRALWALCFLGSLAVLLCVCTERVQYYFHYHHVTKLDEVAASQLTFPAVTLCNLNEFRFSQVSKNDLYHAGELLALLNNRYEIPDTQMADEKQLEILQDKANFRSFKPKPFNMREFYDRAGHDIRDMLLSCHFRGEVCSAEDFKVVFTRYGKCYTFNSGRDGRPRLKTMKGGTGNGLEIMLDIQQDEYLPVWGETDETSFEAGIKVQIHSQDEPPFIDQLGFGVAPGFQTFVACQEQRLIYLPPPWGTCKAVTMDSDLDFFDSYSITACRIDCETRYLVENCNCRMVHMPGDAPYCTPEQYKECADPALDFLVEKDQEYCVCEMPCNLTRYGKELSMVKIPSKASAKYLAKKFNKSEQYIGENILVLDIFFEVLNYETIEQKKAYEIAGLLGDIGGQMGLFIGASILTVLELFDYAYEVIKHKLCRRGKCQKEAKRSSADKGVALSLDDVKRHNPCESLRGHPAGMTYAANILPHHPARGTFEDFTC
Briefly: Two-electrode voltage clamp in Xenopus laevis oocytes expressing hASIC1a (OpusExpress). Details: expressed in transfected cells; host or cells: Xenopus laevis oocytes, nuclear microinjection of cDNA (e.g. in pCDNA3). The assay is classed as cell-based. The note with it: for effect on hASIC1a current evoked by pH 6.5 in oocytes (FIGS. 4A-4D): OpusExpress, two-electrode voltage clamp, dose-response. The essentials:
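Two-electrode voltage clamp on Xenopus oocytes expressing homomeric hASIC1a, recorded on an automated multichannel system. Oocytes superfused with Ringer (HEPES, pH 7.4); currents evoked by MES-buffered acidic Ringer, with compound present in both control and acidic solutions, at room temperature.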

Assay [2] addresses T1, hASIC1a. Briefly: FlexStation/FLIPR calcium-imaging assay, acid (MES)-induced response in ASIC1a expressing cells. It counts as cell-based. Details: expressed in transfected cells. Here is the method: Identification of ASIC Antagonists Using Calcium-Imaging
ASIC1a expressing HEK293 or CHO cells are grown in culture medium (DMEM with 10% FBS), in polystyrene culture flasks ([…]) at 37° C. in a humidified atmosphere of 5% CO2. Confluency of cells should be 80-90% on day of plating. Cells are rinsed with 10 ml of PBS and re-suspended by addition of culture medium and trituration with a 25 ml pipette.
The cells are seeded at a density of approximately 1×10^5 cells/ml for HEK293 and 8×10^4 for CHO cells (100 μl/well) in black-walled, clear bottom, poly-D-lysin pre-treated 96-well plates. Plated cells were allowed to proliferate for 48 h before loading with dye.
Fluo-4/AM (1 mg, Molecular Probes) is dissolved in 912 μl DMSO. The Fluo-4/AM stock solution (1 mM) is diluted with culture medium to a final concentration of 2 μM (loading solution).
The culture medium is aspirated from the wells, and 80 μl of the Fluo-4/AM loading solution is added to each well. The cells are incubated at 37° C. for 30 min. When CHO cells are used, probenicid at 2.5 mM (final concentration) is added in the loading solution.
After the loading period (15-20 min., the loading solution is aspirated and the cells are washed twice with 100 μl modified Assay Buffer (145 mM NaCl, 5 mM KCl, 5 mM CaCl2, 1 mM MgCl2, 10 mM HEPES, pH 7.4) to remove extracellular dye. Following the second wash, 100 μl modified Assay Buffer is added to each well and the fluorescence is measured in FLIPR™ or FlexStation™ (Molecular Devices, USA), or any other suitable equipment known to the skilled in the art. When CHO cells are used, probenicid at 2.5 mM (final concentration) is added in the wash buffer.
First addition: 50 μl test solution at a rate of 26 μl/sec and a starting height of 125 μl
Second addition: 50 μl MES solution (20 mM, 5 mM final concentration) at a rate of 26 μl/sec and a starting height of 115 μl.
Reading intervals: pre-incubation—120 sec. antagonist phase, addition of MES at 145 sec. and reading time with agonist 100 sec (total run time of 240 sec).
Fluorescence obtained after stimulation is corrected for the mean basal fluorescence (in modified Assay Buffer).
The MES-induced peak calcium response (or change in membrane potential), in the presence of test substance, is expressed relative to the MES response alone. Test substances that block the MES-induced calcium response (or change in membrane potential) are re-tested in triplicates. Confirmed hits are picked for further characterization by performing full dose-response curves to determine potency of each hit compound as represented by the IC50 values (i.e., the concentration of the test substance which inhibits 50% of the MES-induced calcium and/or membrane potentiation response; see, for example, FIG. 1).

Where [3] appears, read: calcium mobilization assay, HEK293, n=3-7, read-out: FPAT-ASIC1a human/HEK293/k21 IC50.

In the case of `COc1ccc(C(=O)CN2CCN(c3cc(C)nc4ccccc34)CC2)cc1` [Compound A, 1-(4-methoxy-phenyl)-2-[4-(2-methyl-quinolin-4-yl)-piperazin-1-yl]-ethanone], at hASIC1a [1], the “effect on hASIC1a current evoked by pH 6.5 in oocytes (FIGS. 4A-4D)” value (“effect on hASIC1a current evoked” for short) is “effective modulators”. Moreover, on hASIC1a [2] (setting [3]), the IC50 was under 10 µM.
Turning to `Fc1cccc2c(OC3CCN(Cc4ccccc4)CC3)cc(C(F)(F)F)nc12` [Compound B, 4-(1-benzyl-piperidin-4-yloxy)-8-fluoro-2-trifluoromethyl-quinoline], the “effect on hASIC1a current evoked” value at hASIC1a [1] is listed as “dose-dependent reduction”. Also, the IC50 on hASIC1a [2] (setting [3]) was under 10 µM.
Consider `Cc1cc(OC2CCN(Cc3ccccc3)CC2)c2ccccc2n1` [Compound R, 4-(1-benzyl-piperidin-4-yloxy)-2-methyl-quinoline], for which the IC50 was 2 to 10 µM at hASIC1a [1] (OpusExpress (OX), Tables A-F, h1a printed in some cells only, read-out: Biological Data (IC50 uM) h1a (OX)); 1.5 µM on hASIC1a [1] (Table H, read-out: IC50 (μM) Opus Express (h1a)); 15 to 25 µM on hASIC1a [2] (FlexStation (Flex), Tables A-F, read-out: Biological Data (IC50 uM) h1a (Flex)). The “effect on hASIC1a current evoked” value on hASIC1a [1] is “effective modulators; also recorded: dose-dependent reduction”. At hASIC1a [2] (HEK-293 transiently expressing hASIC1a, intracellular calcium, increasing concentrations), the “inhibitory effect on acid-induced hASIC1a activity (FIG. 1)” value is “dose-dependently inhibited”.
